# In US9532569B2 (INSTITUT NATIONAL DE LA RECHERCHE AGRONOMIQUE, priority 2012, dated 2017):
# Columns and labels:
# Orobanche minor = experiment: Germinative activity on parasitic plants; format: in vivo; details: counted after 4 days
# Description: (§1) In this example, the germinative activity of the compounds in accordance with the invention (IIa) and (IIIb) and of the comparative compound GR24 was evaluated on the parasitic plants: Orobanche cumana, Orobanche minor, Striga hermonthica, Phelipanche ramosa (pv T and pv C).
# (§2) The test protocol used was the following.
# (§3) Seeds of Orobanche cumana Wallr. were collected from broomrapes parasitizing sunflower (Helianthus annuus L.), at Longeville-sur-mer, France, in 2009; seeds of clover broomrape (Orobanche minor Sm.) from a parasite of red clover (Trifolium pratense L.) were obtained from Professor K. Yoneyama (Utsunomiya University, Japan).
# (§4) The seeds are stored dry in the dark at 25° C.
# (§5) The compounds to be studied were resuspended in acetone at 10 mmol·l^−1, then diluted with water to 1 mmol·l^−1 (water/acetone; v/v; 99/1). Dilutions of 1×10^−3 mol·l^−1 to 1×10^−15 mol·l^−1 were then prepared in a water/acetone mixture (v/v; 99/1). Seeds of parasitic plants were surface-sterilized according to the protocol described in the publication by Vieira Dos Santos et al. (2003), then resuspended in sterile water (10 g·l^−1) and distributed on a 96-well plate (in a proportion of 50 μl, i.e. approximately 100 seeds per well). After preconditioning (7 days, 21° C., in the dark, plate hermetically sealed, except for the seeds of S. hermonthica, which were preconditioned at 30° C.), the compounds to be studied were added and the volumes adjusted to 100 μl with water (water/acetone; v/v; 999/1).
# (§6) In a plate, a range of concentrations from 10^−13 mol·l^−1 to 10^−6 mol·l^−1 was applied for GR24 and (IIa) and from 10^−12 to 10^−5 mol·l^−1 for (IIIb). Controls were carried out with a water/acetone mixture (v/v; 999/1) and without seeds. The plates were incubated so as to allow germination (21° C., in the dark or 30° C. for Striga hermonthica.). After 4 days, the seeds which had germinated were counted under a stereomicroscope (SZX10, Olympus). The seeds were considered to have germinated when the radicle was sticking out of the seed tegument. Each germination test was repeated at least 3 times. For each compound tested, dose-response curves (g=f(c), where g is the germination percentage and c the concentration (mol·l^−1)), and the EC50 (median effective concentration) were modeled on the basis of a 4-parameter logistic curve calculated with SigmaPlot® 10.0.
# (§7) The percentages of maximum germination induced by the compounds tested for each parasitic plant were determined.
# Orobanche cumana = experiment: Germinative activity on parasitic plants; format: in vivo; details: counted after 4 days
# Description: as §1, §2, §3, §4, §5, §6, §7
# pea mutant rms1 [1] = experiment: Inhibition of branching in the pea, application directly on the axillary bud; format: in vivo, Pisum sativum L.; details: Experiment 7, FIG. 9; 0.1 nM, 1 nM, 10 nM and 100 nM
# Phelipanche ramosa pv C = experiment: Germinative activity on parasitic plants; format: in vivo; details: counted after 4 days
# Description: as §1, §2
# (§8) Two populations of Phelipanche ramosa were used in this study, pathovar (pv) C and T, described in the publication by Benharrat et al. (2005). Seeds of Phelipanche ramosa pathovar C were collected at Saint Martin de Fraigneau, France, on broomrapes parasitizing winter oilseed rape (Brassica napus L.) in 2005 and seeds of Phelipanche ramosa pathovar T were collected in Sarthe, France, on broomrapes developing on hemp (Cannabis sativa L.) in 2007.
# as §4, §5, §6, §7
# Phelipanche ramosa pv T = experiment: Germinative activity on parasitic plants; format: in vivo; details: counted after 4 days
# Description: as §1, §2, §8, §4, §5, §6, §7
# pea mutant rms1 [2] = experiment: Inhibition of branching in the pea, application directly on the axillary bud; format: in vivo, Pisum sativum L.; details: for activity (length of bud/branch at node 3, 8 days after treatment at node 3): mean of 24 plants
# Description: Generally, in the pea, the first two scales are considered to be the first two nodes, the cotyledonary node being node 0.
# The rms1 mutant is an “SMS” signal biosynthesis mutant, repressing branching of the plant.
# Tests for activity on the inhibition of branching were carried out in the following way.
# The strigolactone-deficient rms1 (ccd8) pea mutants described in Beveridge et al., 1997, were used for the test (M3T884 line derived from the Térèse variety).
# The activity of the compounds (IIa), (II′d) and (II′e) in accordance with the invention and of the comparative compound GR24 was evaluated at respective doses of 10 nM, 100 nM and 1 μM, by treatment at node 3. […]
# 24 plants were sown per treatment. 8 days after sowing, the treatment was carried out on the axillary bud at node 3, by application of 10 μl of each solution to be tested, directly on the bud, by means of a micropipette. The lateral outgrowths at nodes 1 and 2 were removed in order to encourage the growth of the axillary buds at the higher nodes. […]
# The activity of the compounds (IIa), (IIb), (IIc), (II′d), (II′e) and (II′f) in accordance with the invention was evaluated at respective doses of 100 nM and 1 μM, by treatment at node 3.
# For this, solutions containing each compound to be tested, in 1% acetone, 4% propylene glycol 1450 and 50% ethanol, were used.
# The activity of the compounds (IIa), (IIIa), (IIIb) and (IIIc) in accordance with the invention, and also of GR24 as comparative compound, was evaluated at respective doses of 100 nM and 1 μM, by treatment at node 3, according to the protocol described above with reference to experiment 2.
# A sample consisting only of the solvent, and without active compound, was also tested as negative control, termed “CTL 0”.
# In this experiment, the activity of the compound (IIIa) in accordance with the invention, and also of GR24 as comparative compound, was evaluated at respective doses of 1 nM, 10 nM, 100 nM and 1 μM, by treatment at node 3, according to the protocol described above with reference to experiment 2, for doses of 10 nM, 100 nM and 1 μM of compounds.
# A sample consisting only of the solvent, and without active compound (“CTL 0”) was also tested as a negative control. A nontreated (“NT”) control was also carried out.
# (§9) A dose-response test for evaluating the activity of the compounds by deposition at node 3 was carried out according to the protocol described above with reference to experiment 2, for the compound in accordance with the invention (IIa) and for the comparative compounds GR24, Comp. 3 and Comp. 4. Concentrations of 10 nM, 100 nM and 1 μM were tested.
# A sample consisting only of the solvent, and without active compound (“CTL 0”), was also tested as a negative control. A nontreated (“NT”) control was also carried out.
# as §9, with “Comp. 5” for “Comp. 3”, “Comp. 6.” for “Comp. 4.”, “10 nM and” for “10 nM,”, “nM” for “nM and 1 μM”, “tested. […]” for “tested.”
# The sprouting of the axillary buds at node 4 was measured 8 days after the treatment by means of a digital sliding caliper.
# The activity of the compound (IIIa) in accordance with the invention on bud growth at node 3 was evaluated at a dose of 1000 nM by treatment at node 3. The GR24 compound was tested at the same concentration as comparative compound. […]
smiles,measurement,setting,value
"CC1=C(C)C(Sc2ccc(Cl)cc2)OC1=O (stereo not shown) [Compound (IIa), 5-((4-chlorophenyl)thio)-3,4-dimethylfuran-2(5H)-one]",Percentage of maximum germination induced,Orobanche minor,no (no significant germination compared to the negative control (<2%))
same,Percentage of maximum germination induced,Orobanche cumana,no (no significant germination compared to the negative control (<2%))
same,inhibitory activity on bud growth at node 4 (length of bud/branch 8 days after treatment at node 4),pea mutant rms1 [1],"equivalent to that of GR24 at the strongest concentrations, and slightly better at the lowest concentration of 0.1 nM"
same,Percentage of maximum germination induced,Phelipanche ramosa pv C,27 ± 4%
same,Percentage of maximum germination induced,Phelipanche ramosa pv T,72 ± 2%
same,"inhibitory activity on bud growth (length of bud/branch at node 3, 8 days after treatment at node 3)","pea mutant rms1 [2]; Experiment 1, FIG. 3, 10 nM, 100 nM, 1 μM, at the highest concentrations",inhibitory activity on bud growth which is greater than that of the comparative compound GR24
same,"inhibitory activity on bud growth (length of bud/branch at node 3, 8 days after treatment at node 3)","pea mutant rms1 [2]; Experiment 2, FIG. 4, 100 nM and 1 μM",most active
same,"bud growth inhibition (length of bud/branch at node 3, 8 days after treatment at node 3)","pea mutant rms1 [2]; Experiment 3, FIG. 5, 100 nM and 1 μM",activity similar to that of the comparative compound GR24
same,"activity (length of bud/branch at node 3, 8 days after treatment at node 3)","pea mutant rms1 [2]; Experiment 5, FIG. 7, 10 nM, 100 nM and 1 μM","activity which is greater than the comparative compounds provided by the prior art, Comp. 3 and Comp. 4, this being at all the doses tested"
same,"activity (length of bud/branch at node 3, 8 days after treatment at node 3)","pea mutant rms1 [2]; Experiment 6, FIG. 8, 10 nM and 100 nM","activity which is greater than the comparative compounds provided by the prior art, Comp. 5 and Comp. 6, this being at all the doses tested"
